From BindingDB's records for doi:10.1021/jm060056p (University of Bologna, 2006)

Assay: Antiproliferative activity against human MDR1 transfected mouse L5178Y cell line

| SMILES | IC50 [µM] |
| --- | --- |
| COc1ccc(CCN(C)CCN2C(=O)C3C4c5ccccc5C(c5ccccc54)C3C2=O)cc1OC (stereo not drawn) | 4.23 |
| COc1ccc(CCN(C)CC#CCN2C(=O)C3C4c5ccccc5C(c5ccccc54)C3C2=O)cc1OC (stereo not drawn) | 2.55 |
| COc1ccc(CCN(C)CCCN2C(=O)C3C4c5ccccc5C(c5ccccc54)C3C2=O)cc1OC (stereo not drawn) | 5.72 |
